The text below walks through data of the OPERA property sets (Mansouri et al. 2018).

One may read the solubility as how much of the substance goes into solution per volume.

Structures are written as SMILES. Converted amounts (≈) assume the structure as drawn.

For one data set the following is noted: 25 °C.
As to `C=CC1CC=CCC1` (stereo not drawn), the solubility worked out at 0.462 mM (≈ 0.05 mg/mL). In turn, `Fc1ccccc1Cl` had a solubility of 3.84 mM (≈ 0.501 mg/mL). For the compound `CCCCCCC`, the solubility stood at 0.0339 mM (≈ 0.0034 mg/mL). On the same count and under the same terms, the value for `C=CCc1ccc(O)c(OC)c1` was 27.4 mM (≈ 4.5 mg/mL); that for `C=CCCCCCC` was 0.0365 mM (≈ 0.0041 mg/mL); that for `Cc1ccccc1C(=O)O` was 8.67 mM (≈ 1.18 mg/mL).

With `c1ccc2c(c1)Cc1c-2ccc2ccccc12`, the solubility turned out to be 0.00021 mM (≈ 4.54e-05 mg/mL). Same read-out and setting: the value for `CC(Cl)(Cl)C(=O)O` was 3510 mM (≈ 502 mg/mL); that for `O=C(O)c1cc(O)c(O)c(OC(=O)c2cc(O)c(O)c(O)c2)c1` was 1.55 mM (≈ 0.5 mg/mL). Same read-out and setting: with `NCCCCCC(=O)O` the figure was 3850 mM (≈ 505 mg/mL). The same measure, in the same setting: the value for `Cc1ccc(C(=O)O)cc1` was 2.5 mM (≈ 0.34 mg/mL). Compound `Cc1ccccc1S(N)(=O)=O` had a solubility of 9.46 mM (≈ 1.62 mg/mL).

Compound `C=CC#N` displayed a solubility of 1400 mM (≈ 74.5 mg/mL). Still for that read-out and setting: the value for `CC(=O)[C@@]1(C)CC[C@H]2[C@@H]3C=C(C)C4=CC(=O)CC[C@]4(C)[C@H]3CC[C@@]21C` was 0.00534 mM (≈ 0.00182 mg/mL); that for `COC1=CC(=O)C[C@@H](C)[C@]12Oc1c(Cl)c(OC)cc(OC)c1C2=O` was 0.0245 mM (≈ 0.00864 mg/mL); that for `CC(C)CCC(C)(C)C` was 0.00897 mM (≈ 0.00115 mg/mL).

`COc1ccccc1` returned a solubility of 9.62 mM (≈ 1.04 mg/mL).

Compound `O=C=O` displayed a solubility of 33.5 mM (≈ 1.47 mg/mL). As for `NS(=O)(=O)c1cc2c(cc1C(F)(F)F)NC(Cc1ccccc1)NS2(=O)=O` (stereo not drawn), the solubility was determined as 0.256 mM (≈ 0.108 mg/mL).

With `CCOC(=O)c1ccccc1`, the solubility stood at 4.79 mM (≈ 0.72 mg/mL). `COc1cc(C=O)ccc1O`: the solubility came out at 72.3 mM (≈ 11 mg/mL).

For `C[C@]12CC[C@H](O)CC1=CC[C@@H]1[C@@H]2CC[C@]2(C)C(=O)CC[C@@H]12`, the solubility amounted to 0.129 mM (≈ 0.0372 mg/mL).

Regarding `c1cc2ccc3ccc4ccc5cccc6c(c1)c2c3c4c56`, the solubility worked out at 9.41e-07 mM (≈ 2.6e-07 mg/mL). Same read-out and setting: the value for `O=C(Oc1ccccc1)c1ccccc1O` was 0.7 mM (≈ 0.15 mg/mL); that for `O=C1OCc2ccc([N+](=O)[O-])cc21` was 2.23 mM (≈ 0.4 mg/mL); that for `O=[N+]([O-])O[C@H]1CO[C@H]2[C@@H]1OC[C@H]2O[N+](=O)[O-]` was 2.33 mM (≈ 0.55 mg/mL). `Clc1cc(Cl)c(-c2c(Cl)cc(Cl)cc2Cl)c(Cl)c1` yielded a solubility of 1.13e-06 mM (≈ 4.08e-07 mg/mL). The same measure, in the same setting: with `CC(C)OC(C)(C)C` the figure was 4.3 mM (≈ 0.5 mg/mL); with `ClCCCCl`, 24.3 mM (≈ 2.75 mg/mL); with `O=C1NC(=O)c2ccccc21`, 2.45 mM (≈ 0.36 mg/mL). On to `Clc1ccc(Cl)c(-c2cc(Cl)c(Cl)cc2Cl)c1`, for which the solubility came to 4.72e-05 mM (≈ 1.54e-05 mg/mL). On the same count and under the same terms, with `OC(c1ccccc1)(c1ccccc1)c1ccccc1` the figure was 5.5 mM (≈ 1.43 mg/mL). In the case of `Clc1cc(Cl)c(-c2ccccc2)c(Cl)c1`, the solubility came out at 0.000978 mM (≈ 0.000252 mg/mL). Still for that read-out and setting: with `CC1CCCC(C)(C)C1` (stereo not drawn) the figure was 0.014 mM (≈ 0.00177 mg/mL). Same read-out and setting: with `CCC(O)C(C)(C)C` (stereo not drawn) the figure was 70.6 mM (≈ 8.2 mg/mL); with `Cc1cccc2ccccc12`, 0.181 mM (≈ 0.0258 mg/mL); with `O=C(O)c1cccc(Cl)c1[N+](=O)[O-]`, 2.33 mM (≈ 0.47 mg/mL).

`Clc1ccc(Cl)c(-c2c(Cl)ccc(Cl)c2Cl)c1Cl` registered a solubility of 1.25e-05 mM (≈ 4.51e-06 mg/mL). Same read-out and setting: the value for `CCCCCCCCCC` was 0.000365 mM (≈ 5.2e-05 mg/mL); that for `O=C(Nc1ccccc1)c1ccccc1O` was 0.258 mM (≈ 0.055 mg/mL). Consider `ONc1ccccc1`, for which the solubility was determined as 259 mM (≈ 28.3 mg/mL). With `CC(C)(C)C(=O)C1C(=O)c2ccccc2C1=O`, the solubility is 0.0782 mM (≈ 0.018 mg/mL). Still for that read-out and setting: with `CCCC(C)=O` the figure was 499 mM (≈ 43 mg/mL); with `Clc1cc(Cl)cc(-c2cc(Cl)cc(Cl)c2)c1`, 4.22e-06 mM (≈ 1.23e-06 mg/mL). On the same count and under the same terms, the value for `CC(C)C(C)C(C)C` was 0.0201 mM (≈ 0.0023 mg/mL); that for `S=C=Nc1cccc(Cl)c1` was 0.112 mM (≈ 0.019 mg/mL).

In the case of `CC(C(=O)O)C(=O)O`, the solubility was 5750 mM (≈ 679 mg/mL). Still for that read-out and setting: with `CC(Oc1ccc(Cl)cc1)C(=O)O` (stereo not drawn) the figure was 7.33 mM (≈ 1.47 mg/mL); with `S=C=NCc1ccccc1`, 0.73 mM (≈ 0.109 mg/mL). Still for that read-out and setting: with `C=CCc1ccc(OC)cc1` the figure was 1.2 mM (≈ 0.178 mg/mL). On the same count and under the same terms, the value for `CC1(C)[C@H](C(=O)O)CC[C@]1(C)C(=O)O` was 38 mM (≈ 7.6 mg/mL); that for `C1CCCCCC1` was 0.306 mM (≈ 0.03 mg/mL); that for `CC1CCC(C)(C)C1` (stereo not drawn) was 0.0332 mM (≈ 0.00373 mg/mL). As for `CN(C)CC/C=C1\c2ccccc2COc2ccccc21`, the solubility is 0.113 mM (≈ 0.0316 mg/mL). Same read-out and setting: the value for `Cc1ccc2ccccc2c1` was 0.173 mM (≈ 0.0246 mg/mL); that for `CC=CC(C)O` (stereo not drawn) was 1040 mM (≈ 89.2 mg/mL). Consider `CCCC(C)O` (stereo not drawn), for which the solubility stood at 506 mM (≈ 44.6 mg/mL). The same measure, in the same setting: with `C=CCCBr` the figure was 5.66 mM (≈ 0.764 mg/mL); with `CCC(C)(C)CO`, 74.4 mM (≈ 7.6 mg/mL); with `COP(=O)(OC)OC`, 3570 mM (≈ 500 mg/mL).

Staying with this data set, now noted: 28 °C.
`O=C(O)CCCC(=O)O` displayed a solubility of 12100 mM (≈ 1600 mg/mL). Same read-out and setting: the value for `CCOC(=O)[C@H](Cc1ccc(O)cc1)NC(C)=O` was 13.8 mM (≈ 3.48 mg/mL).

The data set is the same for the next values; noted with them: 30 °C.
The compound `CCCCC(=O)CCCC` gave a solubility of 2.55 mM (≈ 0.363 mg/mL). On the same count and under the same terms, the value for `CC(C)CCC[C@@H](C)[C@H]1CC[C@H]2[C@@H]3CC=C4C[C@@H](O)CC[C@]4(C)[C@H]3CC[C@]12C` was 0.000246 mM (≈ 9.5e-05 mg/mL); that for `C=CCCCCCCCCC(=O)O` was 0.4 mM (≈ 0.0737 mg/mL). Still for that read-out and setting: with `CN1c2ccccc2Sc2ccc(CC(=O)O)cc21` the figure was 0.114 mM (≈ 0.031 mg/mL); with `C#CC=C`, 34.3 mM (≈ 1.79 mg/mL). On the same count and under the same terms, the value for `Cc1ccc(S(=O)(=O)NC(=O)NN2CCCCCC2)cc1` was 0.21 mM (≈ 0.0654 mg/mL).
